Laboratory results from patent US20240158446A1, “CYCLIC COMPOUND HAVING SELECTIVE INHIBITORY ACTION ON KRAS OVER HRAS AND NRAS” (CHUGAI SEIYAKU KABUSHIKI KAISHA, priority 2021, published 2024).
Where a SMILES comes first, the peptide text is derived from it. Bridges are numbered along the chain shown (N, C = ends). [ ]: non-standard residue; d: D form. The star is where a group is joined. hPhe(3-Cl-4-CF3) = N[C@@H](CCc1ccc(C(F)(F)F)c(Cl)c1)C(=O)O; NPrPhe(4-CF3) = CCCN[C@@H](Cc1ccc(C(F)(F)F)cc1)C(=O)O; NMeGly(cPent) = CN[C@H](C(=O)O)C1CCCC1; Pro(4,4-F2) = O=C(O)[C@@H]1CC(F)(F)CN1; Hyp = O=C(O)[C@@H]1C[C@@H](O)CN1; NMeD = CN[C@@H](CC(=O)O)C(=O)O; NMeL = CN[C@@H](CC(C)C)C(=O)O; N(Me)CH2CH2OMe = COCCN(C)*; NMeA = CN[C@@H](C)C(=O)O; Ac5c = NC1(C(=O)O)CCCC1; Aze = O=C(O)[C@@H]1CCN1; Ac4c = NC1(C(=O)O)CCC1; Sar = CNCC(=O)O

Key:
[1] = target: GDP-bound KRAS wild-type protein (Homo sapiens, UniProt P01116); test: Binding to KRAS by surface plasmon resonance (SPR), Single Cycle Kinetics; details: SPR Single Cycle Kinetics, GDP-bound KRAS wild-type protein, 1:1 binding model; read-out: KRAS KD
Chain of GDP-bound KRAS wild-type protein (P01116 whole entry): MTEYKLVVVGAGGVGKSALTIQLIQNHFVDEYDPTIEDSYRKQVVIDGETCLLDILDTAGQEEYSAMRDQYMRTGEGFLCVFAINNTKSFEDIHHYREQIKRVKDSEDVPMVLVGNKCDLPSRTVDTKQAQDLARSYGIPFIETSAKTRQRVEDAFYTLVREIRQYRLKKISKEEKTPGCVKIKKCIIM

[2] = target: GDP-bound NRAS wild-type protein (Homo sapiens, UniProt P01111); test: Binding to NRAS by surface plasmon resonance (SPR), Single Cycle Kinetics; details: SPR, GDP-bound NRAS wild-type protein vs GDP-bound KRAS wild-type protein
Chain of GDP-bound NRAS wild-type protein (P01111 whole entry): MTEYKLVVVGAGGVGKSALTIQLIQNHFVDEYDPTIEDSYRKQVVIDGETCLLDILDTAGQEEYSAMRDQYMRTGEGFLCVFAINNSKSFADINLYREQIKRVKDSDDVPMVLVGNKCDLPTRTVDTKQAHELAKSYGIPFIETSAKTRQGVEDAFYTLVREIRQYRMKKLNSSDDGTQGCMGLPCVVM

[3] = target: GDP-bound HRAS wild-type protein (Homo sapiens, UniProt P01112); test: Binding to HRAS by surface plasmon resonance (SPR), Single Cycle Kinetics; details: SPR, GDP-bound HRAS wild-type protein vs GDP-bound KRAS wild-type protein
Chain of GDP-bound HRAS wild-type protein (P01112 whole entry): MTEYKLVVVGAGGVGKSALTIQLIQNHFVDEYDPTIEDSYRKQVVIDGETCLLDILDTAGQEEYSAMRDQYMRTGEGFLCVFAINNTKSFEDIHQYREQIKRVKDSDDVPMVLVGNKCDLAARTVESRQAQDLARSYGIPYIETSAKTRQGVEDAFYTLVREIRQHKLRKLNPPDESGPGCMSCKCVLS

Row | Compound | Kd [1] [nM] | NRAS/KRAS (ratio of KD value for NRAS to KD value for KRAS) [2] | HRAS/KRAS (ratio of KD value for HRAS to KD value for KRAS) [3]
1 | CCCN1C(=O)[C@@H]2CCN2C(=O)[C@H](C)N(C)C(=O)[C@H]([C@@H](C)CC)NC(=O)[C@H](CC(C)C)N(C)C(=O)C[C@@H](C(=O)N(C)C)NC(=O)[C@H](C2CCCC2)N(C)C(=O)C2(CCCC2)NC(=O)[C@@H]2CCCN2C(=O)[C@H](CCc2ccc(C(F)(F)F)c(Cl)c2)NC(=O)CN(C)C(=O)[C@@H]1Cc1ccc(C(F)(F)F)cc1 [PP0379] ([NMeL]I[NMeA][Aze][NPrPhe(4-CF3)][Sar][hPhe(3-Cl-4-CF3)]P[Ac5c][NMeGly(cPent)]D-NMe2; lactam N-11) | 0.38 | C (A compound having a KD ratio of 0.1 or more and less than 3 is denoted as C) | B (a compound having 3 or more and less than 10 is denoted as B)
2 | CCCN1C(=O)[C@@H]2CCN2C(=O)[C@H](C)N(C)C(=O)[C@H]([C@@H](C)CC)NC(=O)[C@H](CC(C)C)N(C)C(=O)C[C@@H](C(=O)N(C)C)NC(=O)[C@H](C2CCCC2)N(C)C(=O)C2(CCC2)NC(=O)[C@@H]2CCCN2C(=O)[C@H](CCc2ccc(C(F)(F)F)c(Cl)c2)NC(=O)CN(C)C(=O)[C@@H]1Cc1ccc(C(F)(F)F)cc1 [PP0380] ([NMeL]I[NMeA][Aze][NPrPhe(4-CF3)][Sar][hPhe(3-Cl-4-CF3)]P[Ac4c][NMeGly(cPent)]D-NMe2; lactam N-11) | 0.59 | C (A compound having a KD ratio of 0.1 or more and less than 3 is denoted as C) | B (a compound having 3 or more and less than 10 is denoted as B)
3 | CCCN1C(=O)[C@@H]2CCN2C(=O)[C@H](C)N(C)C(=O)[C@H]([C@@H](C)CC)NC(=O)[C@H](CC(C)C)N(C)C(=O)C[C@@H](C(=O)N(C)C)NC(=O)[C@H](C2CCCC2)N(C)C(=O)C2(CCCC2)NC(=O)[C@@H]2CC(F)(F)CN2C(=O)[C@H](CCc2ccc(C(F)(F)F)c(Cl)c2)NC(=O)CN(C)C(=O)[C@@H]1Cc1ccc(C(F)(F)F)cc1 [PP0381] ([NMeL]I[NMeA][Aze][NPrPhe(4-CF3)][Sar][hPhe(3-Cl-4-CF3)][Pro(4,4-F2)][Ac5c][NMeGly(cPent)]D-NMe2; lactam N-11) | 0.49 | C (A compound having a KD ratio of 0.1 or more and less than 3 is denoted as C) | B (a compound having 3 or more and less than 10 is denoted as B)
4 | CCCN1C(=O)[C@@H]2CCN2C(=O)[C@H](C)N(C)C(=O)[C@H]([C@@H](C)CC)NC(=O)[C@H](CC(C)C)N(C)C(=O)C[C@@H](C(=O)N(C)C)NC(=O)[C@H](C2CCCC2)N(C)C(=O)C2(CCC2)NC(=O)[C@@H]2CC(F)(F)CN2C(=O)[C@H](CCc2ccc(C(F)(F)F)c(Cl)c2)NC(=O)CN(C)C(=O)[C@@H]1Cc1ccc(C(F)(F)F)cc1 [PP0382] ([NMeL]I[NMeA][Aze][NPrPhe(4-CF3)][Sar][hPhe(3-Cl-4-CF3)][Pro(4,4-F2)][Ac4c][NMeGly(cPent)]D-NMe2; lactam N-11) | 0.35 | C (A compound having a KD ratio of 0.1 or more and less than 3 is denoted as C) | B (a compound having 3 or more and less than 10 is denoted as B)
5 | CCCN1C(=O)[C@@H]2CCN2C(=O)[C@H](C)N(C)C(=O)[C@H]([C@@H](C)CC)NC(=O)[C@H](CC(C)C)N(C)C(=O)C[C@@H](C(=O)N(C)C)NC(=O)[C@H](C2CCCC2)N(C)C(=O)C2(CCCC2)NC(=O)[C@@H]2C[C@@H](OCC)CN2C(=O)[C@H](CCc2ccc(C(F)(F)F)c(Cl)c2)NC(=O)CN(C)C(=O)[C@@H]1Cc1ccc(C(F)(F)F)cc1 [PP0383] ([NMeL]I[NMeA][Aze][NPrPhe(4-CF3)][Sar][hPhe(3-Cl-4-CF3)][Hyp](Et)[Ac5c][NMeGly(cPent)]D-NMe2; lactam N-11) | 0.24 | C (A compound having a KD ratio of 0.1 or more and less than 3 is denoted as C) | B (a compound having 3 or more and less than 10 is denoted as B)
6 | CCCN1C(=O)[C@@H]2CCN2C(=O)[C@H](C)N(C)C(=O)[C@H]([C@@H](C)CC)NC(=O)[C@H](CC(C)C)N(C)C(=O)C[C@@H](C(=O)N(C)C)NC(=O)[C@H](C2CCCC2)N(C)C(=O)C2(CCC2)NC(=O)[C@@H]2C[C@@H](OCC)CN2C(=O)[C@H](CCc2ccc(C(F)(F)F)c(Cl)c2)NC(=O)CN(C)C(=O)[C@@H]1Cc1ccc(C(F)(F)F)cc1 [PP0384] ([NMeL]I[NMeA][Aze][NPrPhe(4-CF3)][Sar][hPhe(3-Cl-4-CF3)][Hyp](Et)[Ac4c][NMeGly(cPent)]D-NMe2; lactam N-11) | 0.18 | C (A compound having a KD ratio of 0.1 or more and less than 3 is denoted as C) | B (a compound having 3 or more and less than 10 is denoted as B)
7 | CCCN1C(=O)[C@@H]2CCN2C(=O)CN(C)C(=O)[C@H]([C@@H](C)CC)NC(=O)[C@H](CC(C)C)N(C)C(=O)C[C@@H](C(=O)N(C)C)NC(=O)[C@H](C2CCCC2)N(C)C(=O)C2(CCC2)NC(=O)[C@@H]2CCCN2C(=O)[C@H](CCc2ccc(C(F)(F)F)c(Cl)c2)NC(=O)CN(C)C(=O)[C@@H]1Cc1ccc(C(F)(F)F)cc1 [PP0386] ([NMeL]I[Sar][Aze][NPrPhe(4-CF3)][Sar][hPhe(3-Cl-4-CF3)]P[Ac4c][NMeGly(cPent)]D-NMe2; lactam N-11) | 0.69 | C (A compound having a KD ratio of 0.1 or more and less than 3 is denoted as C) | B (a compound having 3 or more and less than 10 is denoted as B)
8 | CCCN1C(=O)[C@@H]2CCN2C(=O)CN(C)C(=O)[C@H]([C@@H](C)CC)NC(=O)[C@H](CC(C)C)N(C)C(=O)C[C@@H](C(=O)N(C)C)NC(=O)[C@H](C2CCCC2)N(C)C(=O)C2(CCCC2)NC(=O)[C@@H]2CC(F)(F)CN2C(=O)[C@H](CCc2ccc(C(F)(F)F)c(Cl)c2)NC(=O)CN(C)C(=O)[C@@H]1Cc1ccc(C(F)(F)F)cc1 [PP0387] ([NMeL]I[Sar][Aze][NPrPhe(4-CF3)][Sar][hPhe(3-Cl-4-CF3)][Pro(4,4-F2)][Ac5c][NMeGly(cPent)]D-NMe2; lactam N-11) | 0.54 | C (A compound having a KD ratio of 0.1 or more and less than 3 is denoted as C) | B (a compound having 3 or more and less than 10 is denoted as B)
9 | CCCN1C(=O)[C@@H]2CCN2C(=O)CN(C)C(=O)[C@H]([C@@H](C)CC)NC(=O)[C@H](CC(C)C)N(C)C(=O)C[C@@H](C(=O)N(C)C)NC(=O)[C@H](C2CCCC2)N(C)C(=O)C2(CCC2)NC(=O)[C@@H]2CC(F)(F)CN2C(=O)[C@H](CCc2ccc(C(F)(F)F)c(Cl)c2)NC(=O)CN(C)C(=O)[C@@H]1Cc1ccc(C(F)(F)F)cc1 [PP0388] ([NMeL]I[Sar][Aze][NPrPhe(4-CF3)][Sar][hPhe(3-Cl-4-CF3)][Pro(4,4-F2)][Ac4c][NMeGly(cPent)]D-NMe2; lactam N-11) | 0.78 | C (A compound having a KD ratio of 0.1 or more and less than 3 is denoted as C) | B (a compound having 3 or more and less than 10 is denoted as B)
10 | CCCN1C(=O)[C@@H]2CCN2C(=O)CN(C)C(=O)[C@H]([C@@H](C)CC)NC(=O)[C@H](CC(C)C)N(C)C(=O)C[C@@H](C(=O)N(C)C)NC(=O)[C@H](C2CCCC2)N(C)C(=O)C2(CCCC2)NC(=O)[C@@H]2C[C@@H](OCC)CN2C(=O)[C@H](CCc2ccc(C(F)(F)F)c(Cl)c2)NC(=O)CN(C)C(=O)[C@@H]1Cc1ccc(C(F)(F)F)cc1 [PP0389] ([NMeL]I[Sar][Aze][NPrPhe(4-CF3)][Sar][hPhe(3-Cl-4-CF3)][Hyp](Et)[Ac5c][NMeGly(cPent)]D-NMe2; lactam N-11) | 0.16 | C (A compound having a KD ratio of 0.1 or more and less than 3 is denoted as C) | B (a compound having 3 or more and less than 10 is denoted as B)
11 | CCCN1C(=O)[C@@H]2CCN2C(=O)CN(C)C(=O)[C@H]([C@@H](C)CC)NC(=O)[C@H](CC(C)C)N(C)C(=O)C[C@@H](C(=O)N(C)C)NC(=O)[C@H](C2CCCC2)N(C)C(=O)C2(CCC2)NC(=O)[C@@H]2C[C@@H](OCC)CN2C(=O)[C@H](CCc2ccc(C(F)(F)F)c(Cl)c2)NC(=O)CN(C)C(=O)[C@@H]1Cc1ccc(C(F)(F)F)cc1 [PP0390] ([NMeL]I[Sar][Aze][NPrPhe(4-CF3)][Sar][hPhe(3-Cl-4-CF3)][Hyp](Et)[Ac4c][NMeGly(cPent)]D-NMe2; lactam N-11) | 0.2 | C (A compound having a KD ratio of 0.1 or more and less than 3 is denoted as C) | B (a compound having 3 or more and less than 10 is denoted as B)
12 | CCCN1C(=O)CN(C)C(=O)CN(C)C(=O)[C@H]([C@@H](C)CC)NC(=O)[C@H](CC(C)C)N(C)C(=O)C[C@@H](C(=O)N(C)CCOC)N(C)C(=O)[C@H](C2CCCC2)N(C)C(=O)C2(CCCC2)NC(=O)[C@@H]2CCCN2C(=O)[C@H](CCc2ccc(C(F)(F)F)c(Cl)c2)NC(=O)CN(C)C(=O)[C@@H]1Cc1ccc(C(F)(F)F)cc1 [PP0391] ([NMeL]I[Sar][Sar][NPrPhe(4-CF3)][Sar][hPhe(3-Cl-4-CF3)]P[Ac5c][NMeGly(cPent)][NMeD]-{N(Me)CH2CH2OMe}; lactam N-11) | 0.092 | B (a compound having 3 or more and less than 10 is denoted as B) | B (a compound having 3 or more and less than 10 is denoted as B)
